One test concerns the target T1, Aβ40 peptide (Homo sapiens, UniProt P05067).
T1 construct: namely, the Aβ40 peptide and the Aβ40 (H6A, H13A, and H14A) triple-mutant; purchased AlexoTech AB (Umeå, Sweden); host or cells: recombinant
The test is described as follows: Binding affinity via Tyr10 fluorescence quenching, Aβ40. Particulars: for Kd: 20 μM Aβ40. On the procedure:
Fluorescence measurements were conducted on a Jobin Yvon Horiba Fluorolog 3 fluorescence spectrophotometer (Longjumeau, France) using a quartz cuvette with a 4 mm path length. […] Apparent dissociation constants (KD^App) were determined by fitting the plots to eq 2 [drawing 2] 2 where I0 is the initial fluorescence intensity with no added UO2^2+ ions, I∞ is the steady-state intensity at the end of the titration, [Ab] is the protein concentration, and [U] is the concentration of added UO2^2+ ions.[121],[160]

The target in the next test is T2, Aβ40 peptides (Homo sapiens, UniProt P05067).
T2 construct: namely, the Aβ40 peptide; purchased AlexoTech AB (Umeå, Sweden); host or cells: recombinant
T2 sequence (P05067 672-711 limits assumed): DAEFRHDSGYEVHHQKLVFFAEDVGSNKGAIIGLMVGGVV
Briefly: Fluorescence measurements of dityrosine cross-link formation. It counts as biochemical. As to conditions: 100 μM uranyl acetate, 10 μM Aβ40, 20 mM MES pH 7.3, 24 h, room temperature. How it is done: Two samples of Aβ40 peptides were studied. The control sample contained 100 μM EDTA to remove possible contaminating metal ions that could promote dityrosine formation. […] For both samples, the fluorescence spectra are virtually identical before and after 24 h of incubation (Figure 6). Specifically, no peak around 410 nm, indicative of dityrosine,[129],[130] has emerged.
Fluorescence emission spectra between 330 and 480 nm (excitation at 315 nm) were recorded at room temperature with a Jobin Yvon Horiba Fluorolog 3 fluorescence spectrometer (Longjumeau, France) for two samples of 10 μM Aβ40 peptide in 20 mM MES buffer, pH 7.3. […] The control sample contained 100 μM of the chelator EDTA to remove any free metal ions. All measurements were conducted in triplicate using a quartz cuvette with a 4 mm path length and containing a 0.7 mL liquid sample. Spectra were recorded after 0 and 24 h of incubation, during which the samples were kept at room temperature without agitation or other treatment.

Test [1] has as its target T3, Aβ40 (H6A, H13A, and H14A) triple-mutant, Aβ40 (NoHis) (Homo sapiens, UniProt P05067, H677A/H684A/H685A).
T3 construct: the Aβ40 (H6A, H13A, and H14A) triple-mutant; purchased AlexoTech AB (Umeå, Sweden); host or cells: recombinant
Briefly: Binding affinity via Tyr10 fluorescence quenching, Aβ40 (NoHis) mutant. Particulars: 20 μM Aβ40 (NoHis).

A further test deals with T4, Aβ42 oligomers (Homo sapiens, UniProt P05067).
T4 construct: Synthetic lyophilized wt Aβ (1–42) peptides, abbreviated as Aβ42; purchased JPT Peptide Technologies (Germany); host or cells: synthetic peptide
T4 sequence (P05067 672-713 limits assumed): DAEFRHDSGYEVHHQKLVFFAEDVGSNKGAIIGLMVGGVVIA
Briefly: BN-PAGE analysis of SDS-stabilized Aβ42 oligomer formation. It counts as biochemical. On the procedure:
Treatment of Aβ42 peptides with low concentrations (≤7 mM) of SDS, i.e., below the critical micelle concentration for SDS, which is 8.2 mM in water at 25 °C,[152] leads to the formation of stable and homogeneous Aβ42 oligomers of certain sizes and conformations.[131],[132],[153] To prepare such oligomers, size exclusion chromatography (SEC) was initially used to purify synthetic Aβ42 peptides into monomeric form. First, 1 mg of lyophilized Aβ42 powder was dissolved in […] of DMSO. Next, a […] HiTrap desalting column (GE Healthcare, Uppsala) was equilibrated with a 5 mM NaOH solution (pH = 12.3) and washed with a solution of 10–15 mL of 5 mM NaOD, pD = 12.7.[154] The peptide solution in DMSO was applied to the column, followed by an injection of 1.25 mL of 5 mM NaOD. The collection of peptide fractions in 5 mM NaOD on ice was started at a […] flow rate. Ten fractions of 1 mL volumes were collected in 1.5 mL Eppendorf tubes. The absorbance for each fraction at 280 nm was measured with a NanoDrop instrument (Eppendorf, Germany), and peptide concentrations were determined using a molar extinction coefficient of 1280 M^–1 cm^–1 for the single Tyr in Aβ42.[155] The peptide fractions were flash-frozen in liquid nitrogen, covered with argon gas on top in 1.5 mL Eppendorf tubes, and stored at −80 °C until used. SDS-stabilized Aβ42 oligomers of two well-defined sizes (approximately tetramers and dodecamers) were prepared according to a previously published protocol,[131] but in D2O, at a 4-fold lower peptide concentration and without the original dilution step.[132]
Thus, 4–16% Bis–Tris Novex gels (Thermo Fisher Scientific, USA) were loaded with 10 μL samples containing Aβ42 oligomer solutions alongside alongside the Amersham high MW calibration kit for native electrophoresis (GE Healthcare, USA). The gels were run at 4 °C using the electrophoresis system according to the Invitrogen instructions (Thermo Fisher Scientific, USA) and then stained with the Pierce Silver Staining Kit according to the manufacturer’s instructions (Thermo Fisher Scientific, USA). […]

[2] abbreviates: pH 5.1 + 50 mM SDS, read-out: KD^App, single replicates.
Setting [3] is: pH 5.1 + 50 mM SDS, three replicates, read-out: KD^App, average.
Where [4] appears, read: pH 5.1, 20 mM MES, read-out: KD^App, single replicates.
Where [5] appears, read: pH 5.1, 20 mM MES, three replicates, read-out: KD^App, average.

Several values for one entry are separate records, joined by “and”; a condition that tells them apart may be missing. Identical values can stand only once. Like-named read-outs stand apart in the source and are kept apart here.

T3 sequence (P05067 672-711 H677A/H684A/H685A): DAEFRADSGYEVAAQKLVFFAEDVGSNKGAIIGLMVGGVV
T1 sequence (P05067 672-711 limits assumed): as the sequence (P05067 672-711 limits assumed) above

`CC(=O)[O-].CC(=O)[O-].[O]=[U+2]=[O]` [uranyl ions, uranyl acetate]: the “affinities for binding to Aβ peptides” value on Aβ40 peptide (general statement of the abstract) is “micromolar range”. The Kd on Aβ40 peptide (setting [2]) was 21.8 µM and 21.7 µM and 27.4 µM; on Aβ40 peptide (setting [3]), 23.6 ± 3 µM; on Aβ40 peptide (setting [4]), 14 µM and 13.7 µM and 21.3 µM; at Aβ40 peptide (setting [5]) it was 16.3 ± 4 µM; on Aβ40 peptide (pH 7.3 + 50 mM SDS, not to be trusted, read-out: KD^App, single replicates), 206 µM and 252 µM and 251 µM; at Aβ40 peptide (pH 7.3 + 50 mM SDS, three replicates, not to be trusted, read-out: KD^App, average), 236 ± 22 µM. In addition, the Kd on Aβ40 peptide (pH 7.3, 20 mM MES, data deviate from single-site model, not to be trusted, read-out: KD^App, single replicates) is 130 µM and 141 µM and 148 µM; on Aβ40 peptide (pH 7.3, 20 mM MES, three replicates, not to be trusted, read-out: KD^App, average) it was 140 ± 8 µM; in test [1] (setting [2]), 22.3 µM and 30.7 µM and 27.9 µM; in test [1] (setting [3]) it was 27 ± 4 µM; in test [1] (setting [4]), 2.3 µM and 2.8 µM and 4 µM; in test [1] (setting [5]) it was 3 ± 1 µM. Moreover, the “formation of dityrosine cross-links” value at Aβ40 peptides is recorded as “do not induce the formation of dityrosine cross-links”. Further, the “formation of AβO0.05%SDS oligomers (BN-PAGE)” value on Aβ42 oligomers (0.05% SDS, 10, 100, 1000 μM uranyl acetate, 80–100 μM Aβ42) is “no well-defined uniform oligomers were observed”. Moreover, the “concentration required for full disruption of homogeneous AβO0.05%SDS oligomers” value at Aβ42 oligomers (0.05% SDS, Aβ42 oligomers) was 10 µM. Further, the “formation of AβO0.2%SDS oligomers (BN-PAGE)” value at Aβ42 oligomers (0.2% SDS, 10, 100, 1000 μM uranyl, 80–100 μM Aβ42) was “gradually lower amounts of stable AβO0.2%SDS oligomers”.
